In ChEMBL document CHEMBL2346650, “Cytotoxic scalarane sesterterpenes from a Korean marine sponge Psammocinia sp” (Bioorg Med Chem Lett, 2013):

Legend:
A498 = assay: Cytotoxicity against human A498 cells after 72 hrs by MTT assay; type: functional, cell-based; settings: A498, 72 h
CV-1 = assay: Cytotoxicity against african green monkey CV1 cells after 72 hrs by MTT assay; type: cell-based; settings: Chlorocebus aethiops, CV-1, 72 h
[1] = Cytotoxicity against human MiaPaCa cells after 72 hrs by MTT assay; type: functional, cell-based; settings: MIA PaCa-2, 72 h
PANC-1 = assay: Cytotoxicity against human PANC1 cells after 72 hrs by MTT assay; type: functional, cell-based; settings: PANC-1, 72 h
ACHN = assay: Cytotoxicity against human ACHN cells after 72 hrs by MTT assay; type: functional, cell-based

SMILES: CC(=O)OC[C@]12CCCC(C)(C)[C@@H]1CC[C@]1(C)[C@@H]2C[C@@H](OC(C)=O)[C@]2(C)c3cocc3CC[C@@H]12
- IC50 (A498): > 50 µM
- IC50 (CV-1): > 50 µM
- IC50 [1]: 31.1 µM
- IC50 (PANC-1): 48 µM
- IC50 (ACHN): > 50 µM

SMILES: CC(=O)O[C@@H]1OC=C2[C@@H](OC(C)=O)C[C@@H]3[C@](C)(CC[C@H]4[C@@]3(C)CC[C@H]3C(C)(C)CCC[C@@]34CO)[C@H]21
- IC50 (A498): 0.7 µM
- IC50 (CV-1): 0.8 µM
- IC50 [1]: 0.7 µM
- IC50 (PANC-1): 0.4 µM
- IC50 (ACHN): 0.4 µM

SMILES: CC(=O)OC[C@]12CCCC(C)(C)[C@@H]1CC[C@@]1(C)[C@@H]3CC=C4C(=O)O[C@@H](O)[C@@H]4[C@@]3(C)CC[C@@H]12
- IC50 (A498): 1.3 µM
- IC50 (CV-1): 2.1 µM
- IC50 [1]: 1.2 µM
- IC50 (PANC-1): 1.3 µM
- IC50 (ACHN): 1.3 µM

SMILES: CC(=O)OC[C@]12CCCC(C)(C)[C@@H]1CC[C@@]1(C)[C@@H]3C[C@H](OC(C)=O)C4=CO[C@@H](OC(C)=O)[C@@H]4[C@@]3(C)CC[C@@H]12
- IC50 (A498): 5.7 µM
- IC50 (CV-1): 3 µM
- IC50 [1]: 2.8 µM
- IC50 (PANC-1): 1.6 µM
- IC50 (ACHN): 5.8 µM

SMILES: CC1(C)CCC[C@@]2(CO)[C@H]1CC[C@]1(C)[C@@H]2CC[C@]2(C)C3=C(C(=O)O[C@H]3O)C(O)C[C@@H]12 (mixture of isomers)
- IC50 (A498): 40.7 µM
- IC50 (CV-1): > 50 µM
- IC50 [1]: > 50 µM
- IC50 (PANC-1): > 50 µM
- IC50 (ACHN): > 50 µM

SMILES: CC1(C)CCC[C@@]2(CO)[C@H]1CC[C@@]1(C)[C@@H]3CC=C(C=O)[C@H](C=O)[C@@]3(C)CC[C@@H]12 [12-DEACETOXY-23-HYDROXYSCALARADIAL]
- IC50 (A498): > 50 µM
- IC50 (CV-1): > 50 µM
- IC50 [1]: 31.1 µM
- IC50 (PANC-1): 34.3 µM
- IC50 (ACHN): > 50 µM

SMILES: CC1(C)CCC[C@]2(C)[C@H]3CC[C@@]4(C)[C@@H](CC=C(C=O)[C@@H]4C=O)[C@]3(C)CC[C@@H]12 [12-DEACETOXYSCALARADIAL]
- IC50 (A498): > 50 µM
- IC50 (CV-1): 45 µM
- IC50 [1]: 45.9 µM
- IC50 (PANC-1): 38.8 µM
- IC50 (ACHN): > 50 µM

SMILES: Nc1ccn([C@@H]2O[C@H](CO)[C@@H](O)C2(F)F)c(=O)n1 [GEMCITABINE]
- IC50 (CV-1): 21.9 µM
- IC50 [1]: 17.1 µM
- IC50 (PANC-1): > 50 µM

SMILES: CCN(CC)CCNC(=O)c1c(C)[nH]c(/C=C2\C(=O)Nc3ccc(F)cc32)c1C [SUNITINIB]
- IC50 (A498): 4.3 µM
- IC50 (ACHN): 5.7 µM

SMILES: CO[C@H]1C[C@@H]2CC[C@@H](C)[C@@](O)(O2)C(=O)C(=O)N2CCCC[C@H]2C(=O)O[C@H]([C@H](C)C[C@@H]2CC[C@@H](OC(=O)C(C)(CO)CO)[C@H](OC)C2)CC(=O)[C@H](C)/C=C(\C)[C@@H](O)[C@@H](OC)C(=O)[C@H](C)C[C@H](C)/C=C/C=C/C=C/1C [TEMSIROLIMUS]
- IC50 (A498): 34.3 µM
